From paper PMC7198601, “Side chain effect in the modulation of αvβ3/α5β1 integrin activity via clickable isoxazoline-RGD-mimetics: development of molecular delivery systems” (Scientific Reports, 2020)

Tests used:
K562 cells = test: Confocal microscopy of FITC-conjugate internalization in K562 cells; type: cell-based, human
Experimental: (§1) Figure 5 Confocal microscopy images of HEK293 or HEK293 + α5, HEK293 + αvβ3 and K562 cells treated with compound 31 (Cpd 31). Cells were exposed to compound 31 (0.1–1 μM) or its vehicle for 60 minutes at 4 °C and thereafter cells were moved to 37 °C for 15 minutes to promote integrin internalization and fixed as described in Methods. a) Compound 31, conjugated with FITC was able to enter the cells in α5 integrin-dependent manner: it was internalized in HEK293 + α5 but not in HEK293 cells. Right Panels: HEK293 cells not expressing α5 integrin subunit. Left Panels: HEK293 + α5. b) Concentration-dependent internalization of compound 31 was observed also in K562 cancer cells, endogenously expressing α5β1 integrin. […] In the left column of each panel green (FITC) fluorescence was shown, whereas in right one green and blue (DAPI) signals were merged. Nuclei were counterstained with DAPI. Scale bar: 30 µm. d) Compound 31 internalization was evaluated according to green fluorescence intensity in the cells and is reported in the graph. […]
(§2) Specimens were embedded in Mowiol and analyzed using a Nikon C1s confocal laser-scanning microscope, equipped with a Nikon PlanApo 60×, 1.4-NA oil immersion lens. […]
(§3) For internalization analysis of ligand 31, the mean fluorescence intensity was related to the background; the relative fluorescence intensity is reported in the graph in Fig. 5.

HEK293 + α5 cells = test: Confocal microscopy of FITC-conjugate internalization in HEK293 + α5 cells; type: cell-based, human; settings: 0.1–1 μM
Experimental: (§4) In order to visualize the localization of isoxazolines inside the cells and to explore the possibility to use them as shuttles for selective delivery of therapeutic payloads and diagnostics, compound 31 was synthesized conjugating 17b with FITC, as described above. […] In addition, the internalization of compound 31 was concentration-dependent: at a higher concentration (1 μM) it accumulated inside the cells in a greater extent.
(§5) Figure 5 Confocal microscopy images of HEK293 or HEK293 + α5, HEK293 + αvβ3 and K562 cells treated with compound 31 (Cpd 31). […] In the left column of each panel green (FITC) fluorescence was shown, whereas in right one green and blue (DAPI) signals were merged. […] Scale bar: 30 µm. d) Compound 31 internalization was evaluated according to green fluorescence intensity in the cells and is reported in the graph. […]
as §2, §3

HEK293 cells = test: Confocal microscopy of FITC-conjugate internalization in HEK293 cells not expressing α5; type: cell-based, human; settings: HEK293 cells that do not express α5 integrin, 0.1–1 μM
Experimental: as §4, §5, §2, §3

HEK293 + αvβ3 cells = test: Confocal microscopy of FITC-conjugate internalization in HEK293 + αvβ3 cells; type: cell-based, human; settings: HEK293 + αvβ3 cells not expressing α5β1, 0.1–1 μM
Experimental: as §1, §2, §3

α5β1 integrin [1] = biological target: T1, α5β1 integrin (Homo sapiens, UniProt P05556+P08648); test: Cell adhesion assay: K562 cells to immobilized fibronectin (α5β1 integrin-mediated)
T1 sequence (P08648 42-894 limits assumed): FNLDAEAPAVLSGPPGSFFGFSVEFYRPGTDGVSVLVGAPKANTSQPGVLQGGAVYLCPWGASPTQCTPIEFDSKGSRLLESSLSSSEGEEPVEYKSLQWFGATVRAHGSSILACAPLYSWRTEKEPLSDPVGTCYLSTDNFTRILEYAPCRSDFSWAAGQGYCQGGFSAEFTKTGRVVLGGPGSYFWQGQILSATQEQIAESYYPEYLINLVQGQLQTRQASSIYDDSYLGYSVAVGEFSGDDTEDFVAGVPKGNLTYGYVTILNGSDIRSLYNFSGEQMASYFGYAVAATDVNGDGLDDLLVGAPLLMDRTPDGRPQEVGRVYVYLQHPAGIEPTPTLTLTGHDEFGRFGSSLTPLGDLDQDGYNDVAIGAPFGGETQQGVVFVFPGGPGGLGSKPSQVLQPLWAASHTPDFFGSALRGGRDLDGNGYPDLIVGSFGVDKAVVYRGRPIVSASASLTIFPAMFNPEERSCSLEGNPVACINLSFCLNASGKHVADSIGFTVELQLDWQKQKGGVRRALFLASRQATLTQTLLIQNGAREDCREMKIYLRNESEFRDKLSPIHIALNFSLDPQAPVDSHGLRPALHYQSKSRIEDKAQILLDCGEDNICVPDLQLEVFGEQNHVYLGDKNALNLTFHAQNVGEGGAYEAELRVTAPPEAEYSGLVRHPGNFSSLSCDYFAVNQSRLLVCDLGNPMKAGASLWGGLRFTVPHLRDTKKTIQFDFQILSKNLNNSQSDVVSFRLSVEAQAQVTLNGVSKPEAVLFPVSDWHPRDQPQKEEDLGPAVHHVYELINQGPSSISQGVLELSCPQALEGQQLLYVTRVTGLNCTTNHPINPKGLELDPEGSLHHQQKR
T1 sequence (P08648 895-1049 partner limits assumed): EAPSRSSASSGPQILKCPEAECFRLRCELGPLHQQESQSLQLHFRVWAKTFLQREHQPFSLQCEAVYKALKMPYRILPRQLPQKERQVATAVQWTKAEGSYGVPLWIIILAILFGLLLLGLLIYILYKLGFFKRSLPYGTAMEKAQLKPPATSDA
T1 sequence (P05556 21-798): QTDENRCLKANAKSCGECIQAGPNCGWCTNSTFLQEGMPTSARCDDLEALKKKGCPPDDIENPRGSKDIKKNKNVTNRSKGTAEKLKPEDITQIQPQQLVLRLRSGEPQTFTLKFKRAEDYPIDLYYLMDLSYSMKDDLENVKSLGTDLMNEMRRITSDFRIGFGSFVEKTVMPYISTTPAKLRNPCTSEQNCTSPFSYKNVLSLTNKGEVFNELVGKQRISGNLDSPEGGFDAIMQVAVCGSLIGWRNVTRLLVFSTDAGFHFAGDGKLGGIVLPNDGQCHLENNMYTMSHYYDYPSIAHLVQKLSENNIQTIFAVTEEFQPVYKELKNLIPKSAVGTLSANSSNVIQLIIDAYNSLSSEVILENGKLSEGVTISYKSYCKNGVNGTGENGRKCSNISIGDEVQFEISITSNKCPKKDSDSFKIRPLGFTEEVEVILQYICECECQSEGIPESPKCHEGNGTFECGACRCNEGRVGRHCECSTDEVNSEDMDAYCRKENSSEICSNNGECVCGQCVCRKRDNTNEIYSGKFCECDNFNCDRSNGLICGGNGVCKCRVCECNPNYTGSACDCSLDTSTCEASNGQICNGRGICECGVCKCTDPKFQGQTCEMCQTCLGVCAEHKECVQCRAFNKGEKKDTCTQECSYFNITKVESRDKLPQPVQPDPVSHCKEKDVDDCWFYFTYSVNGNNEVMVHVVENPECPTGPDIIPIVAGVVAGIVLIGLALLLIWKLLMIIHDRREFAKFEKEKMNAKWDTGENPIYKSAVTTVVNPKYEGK
Experimental: (§8) The ability of the synthesized racemic ligands to inhibit the adhesion of K562 cells (human erythroleukemic cells, expressing α5β1 integrin) or SK-MEL-24 cells (human malignant melanoma cells, expressing αvβ3 integrin) to immobilized fibronectin was evaluated[29]. […] In these experiments, the cells were seeded onto plates coated with fibronectin and allowed to adhere before quantitation of the number of adherent cells, in presence of increasing concentrations of the compounds.
(§9) SK-MEL-24 (American Tissue Culture Collection, ATCC, Rockville, MD) were routinely grown in minimum essential medium (MEM, Cambrex, Walkersville, MD) supplemented with 10% fetal bovine serum (FBS), nonessential amino acids, and sodium pyruvate. K-562 (ATCC, Rockville, MD) were maintained as a stationary suspension culture in RPMI-1640 and L-glutamine with 10% FBS (Invitrogen (Carlsbad, CA). Cells were kept at 37 °C in a 5% CO2 humidified atmosphere. Forty hours before experiments, K-562 were treated with 25 ng/mL PMA (Sigma-Aldrich SRL, Milan, Italy) to induce differentiation and to increase expression of cell surface antigens[50].
(§10) Plates (96 wells) (Corning Costar, Celbio, Milan,Italy) were coated by passive adsorption with fibronectin (10 µg/mL) or poly-L-lysine (0.002%) (Sigma-Aldrich SRL) overnight at 4 °C. Cells were counted with a haemocytometer and pre-incubated with different concentrations of each compound or with the vehicle (methanol) for 30 min at room temperature to reach a ligand-receptor equilibrium. Stock solutions (10^–2 M) of the assayed compounds were prepared in phosphate-buffered saline (PBS). […] This product is a chromogenic substrate for β-N-acetylglucosaminidase that is transformed in 4-nitrophenol whose absorbance can be measured at 405 nm. As previously described[51], there is a linear correlation between absorbance and enzymatic activity. Therefore, it is possible to identify the number of adherent cells among treated wells, interpolating the absorbance values of unknowns in a calibration curve. The reaction was blocked by addition of 100 µL of a stopping solution [50 µM glycine and 5 µM EDTA (pH 10.4)], and the plates were read in an EnSpire Multimode Plate Reader (PerkinElmer, Waltham, MA, USA). Experiments were carried out in quadruplicate and repeated at least three times. Data analysis and IC50/EC50 values were calculated using Graph-Pad Prism 5.0 (GraphPad Software, San Diego, CA).

[2] = system: α5β1 integrin-mediated phosphorylation of ERK1/2; test: α5β1 integrin-mediated ERK1/2 phosphorylation in K562 cells (Western blot); type: cell-based, human; settings: K562 cells preincubated with compound 10^−7–10^−9 M, then plated on fibronectin
Experimental: The mechanism by which components of extracellular matrix generate intracellular signalling through integrins requires indeed an increased phosphorylation of cytoplasmatic second messengers. Phosphorylation of ERK1/2 plays a central role in fibronectin-mediated survival signalling through integrins: in fact, cell adhesion activates ERK1/2 by binding of α5β1 integrins at the cell surface to extracellular matrix proteins such as fibronectin. The experiment was performed by serum-starving K562 cells in RPMI-1640 containing 1% FBS for 16 h; thereafter, they were preincubated with compound 17b, 24 (10^−7–10^−9 M) or the vehicle for 60 minutes and then plated for 60 minutes on fibronectin.
Figure 2 (a) Cropped blots related to the effect of compounds 17b and 24 on α5β1 integrin-mediated phosphorylation of ERK1/2 in K562 cells. Cells were serum-starved in RPMI-1640 containing 1% FBS for 16 h; then cells were preincubated with different concentrations of the antagonist 17b (10^−7–10^−9 M) or its vehicle for 1 h in suspension and then were allowed to adhere for 1 h on fibronectin (FN). […] Thereafter cells were lysed and lysates were analysed in Western blot using an antibody directed against phosphorylated ERK1/2 (pERK1/2) or total ERK1/2 (totERK1/2). […]
K562 cells were incubated in RPMI-1640 with 1% FBS for 16 h. […] Digital images were acquired and analyzed following previously reported methods.

α5β1 integrin [3] = biological target: T1, α5β1 integrin; test: α5β1 integrin internalization by confocal microscopy in HEK293 + α5-EGFP cells; type: cell-based; settings: compound 1 µM pre-incubated before fibronectin 10 µg/mL
Source text: Integrin trafficking is an important mechanism employed by cells to regulate integrin–extracellular matrix interactions, and thus cellular signalling, during processes such as cell migration and invasion. α5β1 integrin is internalized, trafficked to recycling endosomes and then recycled to the plasma membrane[43],[44]. Membrane trafficking pathways influence α5β1’s ability to promote invasion and metastasis[45],[46]. […]
HEK293 cells (not expressing α5 but endogenously expressing β1 integrin[47],[48] were plated in 6 well plates and at 50–60% confluence were transiently transfected with α5-EGFP plasmid using Lipofectamine2000 transfection reagent (LifeTechnologies). After 48 h from transfection, HEK293 + α5-EGFP cells were assessed to verify integrins expression by flow cytometry (data not shown). α5-EGFP integrin plasmid was a kind gift from Michael Davidson (Addgene plasmid #56423). HEK293 + α5-EGFP cells were treated at 4 °C with fibronectin (10 µg/ml) or the agonist 24 (1 µM) in MEM for 1 hour. Cells exposed to the antagonist 17b (1 µM), before the addition of fibronectin, were pre-incubated with the compound for 20 minutes at 4 °C. […]
as §2

[4] = Stability in water at neutral, basic and acidic pH (LC-MS); type: physicochemical; settings: for loss of product: water, after several hours
Experimental: (§6) LC-MS injections were performed after 30 min from the preparation of the samples and then after each 1.5 hours, following the experiments for 14 h (Fig. 4). […] As a consequence of the spontaneous aromatization of A, also an increasing amount of B was observed after a short period. The aromatised form B was tested to evaluate its effect on the activity of selected integrins but, as consequence of the absence of a crucial pharmacophore, it was not active. This behaviour doesn’t represent a big issue since strong basic conditions are quite unusual in physiological environment. In fact under stress conditions with a large excess of base, the decomposition of 17b to A occurred in few minutes.
(§7) Figure 4 Stability of 17b in neutral, basic, acidic and physiological conditions and its possible degradation pathway. Conditions: 17b (0.1 mmol) in 300 µl of solvent (water or bovine serum). 5 eq of LiOH·H2O or HCl 1 M were added.

[5] = Stability in bovine serum (LC-MS); type: in vitro ADME
Experimental: as §6, §7

αvβ3 integrin = αvβ3 integrin (Homo sapiens, UniProt P05106+P06756); test: Cell adhesion assay: SK-MEL-24 cells to immobilized fibronectin (αvβ3 integrin-mediated)
Chain of αvβ3 integrin (P06756 31-889 limits assumed): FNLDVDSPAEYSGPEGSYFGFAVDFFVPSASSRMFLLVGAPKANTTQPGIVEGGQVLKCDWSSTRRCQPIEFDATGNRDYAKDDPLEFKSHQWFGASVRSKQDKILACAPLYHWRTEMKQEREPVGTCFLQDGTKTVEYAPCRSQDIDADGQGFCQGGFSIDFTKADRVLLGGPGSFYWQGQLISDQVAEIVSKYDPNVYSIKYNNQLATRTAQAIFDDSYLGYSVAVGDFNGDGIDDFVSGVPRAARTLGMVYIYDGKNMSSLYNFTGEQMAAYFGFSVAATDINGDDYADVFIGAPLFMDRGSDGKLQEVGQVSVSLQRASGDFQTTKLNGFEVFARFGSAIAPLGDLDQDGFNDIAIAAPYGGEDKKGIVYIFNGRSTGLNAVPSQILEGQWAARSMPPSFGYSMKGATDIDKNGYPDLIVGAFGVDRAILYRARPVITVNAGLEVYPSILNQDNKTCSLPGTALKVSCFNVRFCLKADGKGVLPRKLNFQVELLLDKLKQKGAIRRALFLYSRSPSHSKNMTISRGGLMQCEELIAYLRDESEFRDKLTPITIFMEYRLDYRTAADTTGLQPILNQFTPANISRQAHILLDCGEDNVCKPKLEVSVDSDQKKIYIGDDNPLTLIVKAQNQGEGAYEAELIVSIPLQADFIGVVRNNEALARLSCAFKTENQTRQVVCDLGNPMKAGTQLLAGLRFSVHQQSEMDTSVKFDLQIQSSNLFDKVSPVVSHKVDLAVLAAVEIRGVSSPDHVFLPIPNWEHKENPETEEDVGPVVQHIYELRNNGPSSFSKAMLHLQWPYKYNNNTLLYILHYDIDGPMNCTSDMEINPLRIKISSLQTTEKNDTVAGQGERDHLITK
Chain of αvβ3 integrin (P06756 891-1048 partner limits assumed): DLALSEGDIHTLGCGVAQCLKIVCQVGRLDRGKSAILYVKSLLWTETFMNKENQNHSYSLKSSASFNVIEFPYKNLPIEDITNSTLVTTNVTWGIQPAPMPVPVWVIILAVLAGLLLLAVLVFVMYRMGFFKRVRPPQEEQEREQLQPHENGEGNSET
Chain of αvβ3 integrin (P05106 27-788): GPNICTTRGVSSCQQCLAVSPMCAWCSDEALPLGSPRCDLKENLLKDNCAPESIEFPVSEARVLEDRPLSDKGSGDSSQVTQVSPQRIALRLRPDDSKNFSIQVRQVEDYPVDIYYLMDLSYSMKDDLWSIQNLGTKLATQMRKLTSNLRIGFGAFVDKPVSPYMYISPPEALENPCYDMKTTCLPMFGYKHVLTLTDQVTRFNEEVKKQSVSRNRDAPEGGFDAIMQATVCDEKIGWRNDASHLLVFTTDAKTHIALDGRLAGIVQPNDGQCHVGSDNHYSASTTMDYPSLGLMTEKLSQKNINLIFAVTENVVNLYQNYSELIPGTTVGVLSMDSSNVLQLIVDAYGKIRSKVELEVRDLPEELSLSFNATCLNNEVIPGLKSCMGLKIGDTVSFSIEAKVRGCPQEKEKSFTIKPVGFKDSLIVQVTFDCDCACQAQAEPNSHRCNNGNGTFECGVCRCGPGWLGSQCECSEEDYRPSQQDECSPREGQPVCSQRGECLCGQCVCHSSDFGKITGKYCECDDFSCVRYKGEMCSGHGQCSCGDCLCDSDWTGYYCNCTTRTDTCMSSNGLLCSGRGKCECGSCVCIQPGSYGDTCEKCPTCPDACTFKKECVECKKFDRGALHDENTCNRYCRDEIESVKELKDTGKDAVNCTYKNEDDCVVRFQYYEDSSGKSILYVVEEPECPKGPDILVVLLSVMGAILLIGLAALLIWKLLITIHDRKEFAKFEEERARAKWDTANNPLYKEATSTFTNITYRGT
Experimental: as §8, §9, §10

selected integrins = test: Effect of the aromatised degradation product on the activity of selected integrins
Experimental: as §6

[6] = K562 cell adhesion to fibronectin

## CC[C@@]1([C@@H]2O[C@@H]([C@H]3O[C@@](O)(CO)[C@H](C)C[C@@H]3C)C[C@@H]2C)CC[C@H]([C@]2(C)CC[C@]3(C[C@H](O)[C@@H](C)[C@@H]([C@@H](C)[C@@H](OC)[C@H](C)C(=O)O)O3)O2)O1 [monensin, reference compound]
K562 cells; monensin 2 µM for 2 h
  effect on compound 31 internalization: significantly inhibited

## CC1=C(C(=O)NCc2ccc(N)cc2)C(CCCc2cn(CCCNC(=S)Nc3ccc(-c4c5ccc(=O)cc-5oc5cc(O)ccc45)c(C(=O)O)c3)nn2)N(C(=O)CC(=O)O)O1 (stereo not drawn) [Compound 31]
HEK293 + α5 cells
  intracellular localization / internalization: localized in the cell cytoplasm
HEK293 cells
  internalization: not able to enter
K562 cells; 0.1–1 μM
  internalization: internalized in K562 cells in a concentration-dependent way
HEK293 + αvβ3 cells
  internalization: not able to be internalized
α5β1 integrin [1]
  IC50: 0.13 ± 0.01 µM
α5β1 integrin [1]; [6]
  α5β1 behaviour (agonist/antagonist): antagonist
α5β1 integrin [1]; K562 cell adhesion to fibronectin, antagonists, also >1000 cells with behaviour not given, mean ± SD
  α5β1 IC50/EC50 (IC50 for antagonists): 0.13 ± 0.01 µM

## CC1=C(C(=O)NCc2ccc(N)cc2)C(CCCc2cn(CCCNC(=O)OC(C)(C)C)nn2)N(C(=O)CC(=O)O)O1 (stereo not drawn) [Compound 17b]
[2]
  fibronectin-induced ERK1/2 phosphorylation levels: significant concentration-dependent reduction
α5β1 integrin [3]
  effect on fibronectin-induced α5β1 integrin internalization: prevented integrin internalization
[4]; acidic treatment (pH=3, HCl)
  loss of product: 5%
[4]; neutral conditions (pH=7)
  loss of product: 5%
[4]; stress conditions with a large excess of base
  decomposition to A: few minutes
[5]
  stability in bovine serum: no significant degradation
α5β1 integrin [1]
  IC50: 0.0027 ± 0.0004 µM
α5β1 integrin [1]; [6]
  α5β1 behaviour (agonist/antagonist): antagonist
αvβ3 integrin
  IC50: > 1000 µM

## Cc1onc(CCCc2cn(CCCNC(=O)OC(C)(C)C)nn2)c1C(=O)NCc1ccc(N)cc1 [B]
Selected integrins
  effect on the activity of selected integrins: not active
